The test system of the experiment is murine neural precursor cells (neurosphere cultures). As to the kind of experiment: HTS of LOPAC library against secondary neurosphere cultures, MTT proliferation assay at 3 μM, day 7 (z score, P value). The format is cell-based, mouse. In general terms: Tetrazolium dyes change colour on reduction, which living cells bring about.
[1] abbreviates: LOPAC primary screen, neurosphere MTT proliferation, 3 μM, day 7.
Setting [2] is: yes/no: significantly inhibited neurosphere proliferation (P<0.01) in primary screen.
Setting [3] is: LOPAC library screen at 3 μM, MTT, secondary neurosphere cultures, screened in singlets.
Setting [4] is: LOPAC screen, neurosphere MTT proliferation, 3 μM, day 7.
The mark [5] stands for this setting: LOPAC library screen at 3 μM, secondary neurosphere cultures, MTT.
[6] abbreviates: primary LOPAC screen, 3 μM, MTT, neurosphere proliferation.
The mark [7] stands for this setting: yes = significantly inhibited neurosphere proliferation (P<0.01) in the primary screen.
The mark [8] stands for this setting: LOPAC library screen, 3 μM, MTT, secondary neurosphere cultures, day 7.
The mark [9] stands for this setting: LOPAC library screen, 3 μM, MTT, neurosphere cultures.
Setting [10] is: yes/no: significantly inhibited neurosphere proliferation (P<0.01) in the primary screen.
Setting [11] is: yes/no: significantly inhibited neurosphere proliferation in primary screen.
The mark [12] stands for this setting: yes/no: significantly inhibited neurosphere proliferation in the primary screen.

Counter-ions that a name gives are not always drawn. Like-named read-outs stand apart in the source and are kept apart here.

As for `Cc1ccc(OCC(O)C(C)NC(C)C)c2c1CCC2.Cl` (stereo not shown) [ICI 118,551 hydrochloride], the “Z Score” value turned out to be 1.101. The Z score under setting [1] came out at 1.101. Besides, the Activity entry under setting [2] is “no”.

In the case of `NCCc1c[nH]c2ccc(C(N)=O)cc12.O=C(O)/C=C\C(=O)O` [5-Carboxamidotryptamine maleate], the “Z Score” value under setting [3] worked out at 1.667. For the same molecule, the Z score under setting [4] stood at 1.667. Also, under setting [2], the Activity result is reported as “no”.

Consider `Cl.Clc1cc(I)cc(Cl)c1NC1=NCCN1` [p-Iodoclonidine hydrochloride], for which the “Z Score” value is reported as −0.1606. This molecule also showed a Z score under setting [1] of −0.161. For the same molecule, the Activity result under setting [2] is “no”.

In the case of `O=c1cc(O)cc(/C=C/c2ccc(O)c(O)c2)o1` [Hispidin], under “168 h, 3 µM”, the “Z Score” value is 0.8896 and the Z score is given as 0.890. In addition, the Activity result under setting [2] is recorded as “no”.

On to `C[N+](C)(C)CCO.[Br-]` [Choline bromide], for which the Activity result is given as “no”, the “Z Score” value is −0.73 and the Z score is on record as −0.730.

For `C[C@@]1(C2CCCC2)Cc2cc(OCC(=O)O)c(Cl)c(Cl)c2C1=O` [R(+)-IAA-94], the “Z Score” value is listed as −0.01015. The molecule also registered a Z score under setting [1] of −0.010. The Activity entry under setting [2] is on record as “no”.

For the molecule `CC(=O)Oc1ccccc1C(=O)O` [Acetylsalicylic acid], the “Z Score” value under setting [5] was −0.4812.

Take `CCCCNC(=O)NS(=O)(=O)c1ccc(C)cc1` [Tolbutamide]: the Activity entry is “no”. For the same molecule, under setting [5], the “Z Score” value was −0.3032. Under setting [6], this molecule gave a Z score of −0.303.

For the molecule `CC(N)(Cc1ccc(O)c(O)c1)C(=O)O` (racemic), the “Z Score” value is −1.894.

For `CCOC(=O)c1ncn2c1CN(C)C(=O)c1cc(F)ccc1-2` [Flumazenil], the Activity result is on record as “no”. Moreover, the “Z Score” value under setting [5] is on record as −0.3664. Under setting [1], the Z score is given as −0.366.

With `CC1=C(C)C(=O)C(CCCCC#CCCCC#CCO)=C(C)C1=O` [AA-861], under setting [3], the “Z Score” value worked out at 1.517. Under setting [6], this molecule gave a Z score of 1.517.

On to `COc1ccc2[nH]cc(CCN)c2c1.Cl` [O-Methylserotonin hydrochloride], for which the “Z Score” value was −0.172. Under setting [1], this molecule had a Z score of −0.172. For the same molecule, the Activity entry under setting [7] was “no”.

In the case of `O=C(O)CN(CCOCCOCCN(CC(=O)O)CC(=O)O)CC(=O)O`, the Activity result was “no”, the “Z Score” value was determined as 1.507 and the Z score came to 1.507.

`CC[C@H](C)C(=O)O[C@H]1CCC=C2C=C[C@H](C)[C@H](CC[C@@H]3C[C@@H](O)CC(=O)O3)[C@H]21` [Mevastatin]: under setting [8], the “Z Score” value is recorded as −6.278. The molecule also gave a Z score under setting [1] of −6.278. Also, under setting [7], the Activity entry is “yes”.

As to CGP 20712A methanesulfonate, under setting [9], the “Z Score” value is given as 0.6491. For the same molecule, under setting [4], the Z score was found to be 0.649. The Activity entry under setting [2] is reported as “no”.

In the case of `CC1=C(CC(=O)O)c2cc(F)ccc2/C1=C\c1ccc([S+](C)[O-])cc1` (stereo not shown) [Sulindac], the Activity entry is on record as “no”. Moreover, the “Z Score” value under setting [5] was −0.1942. Moreover, the Z score under setting [1] was −0.194.

Regarding `CC(=O)Oc1cc(C(C)C)c(OCCN(C)C)cc1C` [Moxisylyte hydrochloride], the “Z Score” value under setting [5] is −1.018. The same molecule gave a Z score under setting [1] of −1.018. In addition, the Activity result under setting [7] is recorded as “no”.

Consider `c1ccc2c(c1)OCC(C1=NCCN1)O2` (stereo not shown) [Idazoxan hydrochloride], for which the “Z Score” value under setting [8] is listed as −1.448. For the same molecule, the Z score under setting [1] is on record as −1.448. Under setting [2], the Activity entry is reported as “no”.

For the molecule `Cc1nc(-c2ccc(-c3ccc(C(=O)N4CCc5cc6c(cc54)C4(CCN(C)CC4)CO6)cc3)c(C)c2)no1.Cl` [SB 224289 hydrochloride], the “Z Score” value under setting [8] is −4.786. Under setting [1], the Z score is recorded as −4.786. The Activity entry under setting [10] was “yes”.

Turning to `C[N+](C)(C)CCC(=O)c1cccc2ccccc12.[I-]` [2-(alpha-Naphthoyl)ethyltrimethylammonium iodide], under “168 h, 3 µM”, the “Z Score” value is reported as −6.762 and the Z score is recorded as −6.762. For the same molecule, the Activity entry under setting [7] is “yes”.

Consider `CN1[C@@H]2CC[C@H]1C[C@@H](OC(c1ccccc1)c1ccccc1)C2` [Benztropine mesylate], for which, under setting [8], the “Z Score” value is on record as −3.749. Also, the Z score under setting [1] is given as −3.749. Further, under setting [10], the Activity entry is on record as “yes”.

For `N[C@@H](Cc1c[nH]c2ccc(O)cc12)C(=O)O` [5-Hydroxy-L-tryptophan], under setting [9], the “Z Score” value came to 0.03011. Under setting [1], the Z score is listed as 0.030. Besides, the Activity entry under setting [2] is given as “no”.

Regarding `CCCN1C[C@H](CSC)C[C@@H]2c3cccc4[nH]cc(c34)C[C@H]21` [Pergolide methanesulfonate], the “Z Score” value under setting [8] is −2.657. Further, under setting [1], the Z score was −2.657. In addition, under setting [10], the Activity result is “yes”.

As to `CC(C)NCC(O)COc1cccc2ccccc12.Cl` (racemic) [(±)-Propranolol hydrochloride], the Z score under setting [1] came out at 0.357. For the same molecule, the Activity entry under setting [11] was “no”.

In the case of “R(−)-2,10,11-Trihydroxyaporphine hybrobromide”, the “Z Score” value is −3.309.

Regarding `Cc1c(OCC(F)(F)F)ccnc1C[S+]([O-])c1nc2ccccc2[nH]1` (stereo not shown) [Lansoprazole], the “Z Score” value under setting [9] was −0.0336. Further, the Z score under setting [1] is recorded as −0.034. Besides, the Activity entry under setting [2] was “no”.

Turning to `CCCCS(=N)(=O)CCC(N)C(=O)O` (racemic) [DL-Buthionine-[S,R]-sulfoximine], the “Z Score” value under setting [5] is on record as −1.022. Under setting [4], the Z score is recorded as −1.022. Besides, the Activity result under setting [2] is given as “no”.

Consider `COc1ccccc1N1CCN(CCN(C(=O)C2CCCCC2)c2ccccn2)CC1.O=C(O)/C=C\C(=O)O` [WAY-100635 maleate], for which the “Z Score” value was −0.4965. The molecule further came in with a Z score under setting [6] of −0.497. Moreover, the Activity entry under setting [12] is “no”.

With `O=C(O)c1cc[c]([Hg][Cl])cc1` [4-Chloromercuribenzoic acid], the “Z Score” value was −0.03193. Besides, the Z score under setting [4] was −0.032. For the same molecule, the Activity entry under setting [2] was “no”.

For the molecule `Cl.NC[C@@H]1O[C@H](C23CC4CC(CC(C4)C2)C3)Cc2c1ccc(O)c2O` [A-77636 hydrochloride], the “Z Score” value amounted to 1.44. Under setting [6], the Z score is 1.440. The Activity result under setting [12] is “no”.

Consider `Cl.c1ccc([C@H]2CN3CCSC3=N2)cc1` [(−)-Teramisole hydrochloride], for which the Z score under setting [1] is given as −1.866. Moreover, the Activity result under setting [2] was “no”.

As to `CC(C)NC[C@@H](O)c1ccc(O)c(O)c1.O=C(O)C(O)C(O)C(=O)O` [S(+)-Isoproterenol (+)-bitartrate], the “Z Score” value was −0.2963.

On to `COc1cc(C=C(C#N)C#N)cc(O)c1O` [Tyrphostin AG 34], for which the “Z Score” value under setting [8] is recorded as −2.319. The molecule further showed a Z score under setting [1] of −2.319. Moreover, the Activity entry under setting [11] is recorded as “no”.

Turning to `CC(=O)N[C@H](C(=O)O)C(C)(C)SN=O` (racemic) [S-Nitroso-N-acetylpenicillamine], the “Z Score” value under setting [8] is −1.645. Under setting [1], the Z score is −1.645. Moreover, the Activity entry under setting [7] is given as “no”.

Take `CCN(CC)CC#CCOC(=O)C(O)(c1ccccc1)C1CCCCC1` (stereo not shown) [Oxybutynin Chloride]: the Activity entry is on record as “no”. Moreover, under setting [9], the “Z Score” value is given as 0.708. For the same molecule, under setting [1], the Z score is on record as 0.708.

Regarding `CN1C2CCC1CC(OC(=O)c1cc(Cl)cc(Cl)c1)C2` (stereo not shown) [ML-9], the “Z Score” value is on record as −9.322. The Z score under setting [1] is given as −9.322.

For the molecule `C[n+]1cc2c3c(ccc2c2ccc4cc5c(cc4c21)OCO5)OCO3` [Sanguinarine chloride], the “Z Score” value is reported as −10.01. The Z score under setting [1] was −10.008. Further, the Activity entry under setting [10] is reported as “yes”.

Regarding `COc1ccc2[nH]c3c(c2c1)CCNC3`, the “Z Score” value is −2.661.

Regarding `NCCc1c[nH]c2ccc(O)cc12` [Serotonin hydrochloride], where the note is “168 h, 3 µM”, the “Z Score” value was −2.197 and the Z score was −2.197. Further, the Activity result under setting [2] was “no”.

On to `CC1COc2c(N3CCN(C)CC3)c(F)cc3c(=O)c(C(=O)O)cn1c23` (stereo not shown) [Ofloxacin], for which, under setting [5], the “Z Score” value was −0.4889. The molecule also had a Z score under setting [1] of −0.489.

Regarding Iproniazid phosphate, the “Z Score” value under setting [5] is reported as −0.2492. Also, the Z score under setting [1] is listed as −0.249. The Activity entry under setting [2] was “no”.

As for `COc1cccc(OC)c1OCCNCC1CSc2ccccc2O1` (stereo not shown) [Benoxathian hydrochloride], where the note is “168 h, 3 µM”, the “Z Score” value was 0.2653 and the Z score came out at 0.265. In addition, under setting [2], the Activity result is recorded as “no”.

As to `Oc1cc2c(cc1O)CN(C(=S)NCCc1ccc(Cl)cc1)CCC2` [Capsazepine], the “Z Score” value under setting [9] is on record as 1.26. The molecule also showed a Z score under setting [4] of 1.260. The Activity result under setting [2] is reported as “no”.

As to `C#CCN1C(C)=C(C(=O)OC)C(c2cccc([N+](=O)[O-])c2)C(C(=O)OCC)=C1C` (stereo not shown) [MRS 1845], the Activity result is recorded as “no” and the “Z Score” value is recorded as −0.006196. The same molecule returned a Z score under setting [1] of −0.006.

With `C[N+]1(CCCCC[N+]2(C)CCCC2)CCCC1.O=C([O-])C(O)C(O)C(=O)O.O=C([O-])C(O)C(O)C(=O)O` [Pentolinium di[L(+)-tartrate]], under setting [9], the “Z Score” value is given as 0.1662. For the same molecule, the Z score under setting [1] turned out to be 0.166. The Activity entry under setting [11] is on record as “no”.

Take `C=C[C@@]1(C)CC(=O)[C@]2(O)[C@@]3(C)[C@@H](O)CCC(C)(C)[C@@H]3[C@H](O)[C@H](OC(C)=O)[C@@]2(C)O1` [Forskolin]: the “Z Score” value under setting [8] is reported as −1.331. The molecule further came in with a Z score under setting [1] of −1.331.

`Cc1ncc(CNC(=O)N(CCCl)N=O)c(N)n1.Cl` [Nimsutine hydrochloride] yielded a Z score under setting [1] of −0.652. Further, the Activity entry under setting [7] is on record as “no”.

These data come from patent US8058243B2, “Method for treating a brain cancer with ifenprodil” (HSC Research and Development Limited Partnership, priority 2006, dated 2011).
